Results as given in patent publication US20160346249A1 (priority 2012, published 2016).
Read-outs that look alike come from different tables or passages of the source.

Assay: Single rising oral dose (10-150 mg IR) safety, tolerance and pharmacokinetics in healthy male volunteers
Assay type: in vivo, human
Conditions: human, plasma, oral; for MRT inf: read-out: MRT0-∞; for AUC(0-t): read-out: AUC0-t
Description: Fifty (50) healthy male adult volunteers, between the ages of 19 and 43 years (mean±SD: 28±6 years) were enrolled in the study and randomized to the […] different treatments. […] The subjects were divided into panels of 10 subjects/dose group. Seven subjects in each group received the test drug, while three received an identical-looking placebo. […] The five treatments are outlined below:
The subjects were admitted to the clinic the night before dose administration and fasted from approximately 10 hour before to 4 hour after ingestion of the study capsules. Treatments were administered with 240 mL of mineral water between 08:00 and 09:00 hours. […] The assay calibration range was 5 to 2,000 ng/mL.
The values of Cmax and Tmax were the observed value for each subject. The terminal elimination rate constant λz was derived from the log-linear disposition phase of the concentration-time curve using linear least-squares regression for which the program determined the appropriate number of terminal points to calculate λz. At least three terminal plasma concentrations were used for estimating λz. The t1/2 (HL_Lambda_z) was calculated as ln 2/λz. AUC0-t and AUMC0-t were determined using the linear trapezoidal rule for each increasing concentration and the log-trapezoidal rule for descending concentrations. The AUC values from the last quantifiable time point to infinity was calculated as Ct/λz. This value was added to AUC0-t to obtain AUC0-∞. […] Oral clearance was calculated as Dose/AUC0-∞. The 90% confidence intervals were calculated for all of the variables.
SAS, version 8.2, was used for the analysis.

Clc1ccc([C@]23CNC[C@H]2C3)cc1Cl [amitifadine, (+)-1-(3,4-dichlorophenyl)-3-azabicyclo[3.1.0]hexane]
half-life (10 mg, individual subject, read-out: t1/2 (converted)): 3.47 h | MRT inf (25 mg, individual subject): 4.81 h | AUC(0-inf) (50 mg, individual subject): 1690 ng·h/mL | MRT inf (50 mg, individual subject): 5.18 h | half-life (50 mg, individual subject, read-out: t1/2 (converted)): 3.25 h | AUC(0-inf) (100 mg, individual subject): 5010 ng·h/mL | AUC(0-t) (100 mg, individual subject): 4960 ng·h/mL | MRT inf (100 mg, individual subject): 4.92 h | half-life (100 mg, individual subject, read-out: t1/2 (converted)): 3.94 h | AUC(0-inf) (150 mg, individual subject): 7300 ng·h/mL | AUC(0-t) (150 mg, individual subject): 7210 ng·h/mL | MRT inf (150 mg, individual subject): 5.67 h | AUC(0-inf) (male, 10 mg, Geometric Mean): 418 ng·h/mL | AUC(0-t) (male, 10 mg, Geometric Mean): 377 ng·h/mL | MRT inf (male, 10 mg, Geometric Mean): 5.21 h | Tmax (male, 10 mg, Geometric Mean, read-out: Tmax): 0.696 h | half-life (male, 10 mg, Geometric Mean, read-out: t1/2 (converted)): 3.4 h | AUC(0-inf) (male, 10 mg, Mean (n = 7)): 429 ng·h/mL | AUC(0-t) (male, 10 mg, Mean (n = 7)): 387 ng·h/mL | MRT inf (male, 10 mg, Mean (n = 7)): 5.23 h | half-life (male, 10 mg, Mean (n = 7), read-out: t1/2 (converted)): 3.42 h | AUC(0-inf) (male, 10 mg, Median): 454 ng·h/mL | AUC(0-t) (male, 10 mg, Median): 409 ng·h/mL | MRT inf (male, 10 mg, Median): 5.35 h | half-life (male, 10 mg, Median, read-out: t1/2 (converted)): 3.47 h | AUC(0-inf) (male, 25 mg, Geometric Mean): 1430 ng·h/mL | AUC(0-t) (male, 25 mg, Geometric Mean): 1340 ng·h/mL | MRT inf (male, 25 mg, Geometric Mean): 4.79 h | Tmax (male, 25 mg, Geometric Mean, read-out: Tmax): 0.863 h | half-life (male, 25 mg, Geometric Mean, read-out: t1/2 (converted)): 2.97 h | AUC(0-inf) (male, 25 mg, Mean (n = 7)): 1470 ng·h/mL | AUC(0-t) (male, 25 mg, Mean (n = 7)): 1390 ng·h/mL | MRT inf (male, 25 mg, Mean (n = 7)): 4.83 h | half-life (male, 25 mg, Mean (n = 7), read-out: t1/2 (converted)): 3.15 h | AUC(0-inf) (male, 25 mg, Median): 1300 ng·h/mL | AUC(0-t) (male, 25 mg, Median): 1190 ng·h/mL | MRT inf (male, 25 mg, Median): 4.65 h | half-life (male, 25 mg, Median, read-out: t1/2 (converted)): 3 h | AUC(0-inf) (male, 50 mg, Geometric Mean): 2420 ng·h/mL | AUC(0-t) (male, 50 mg, Geometric Mean): 2320 ng·h/mL | MRT inf (male, 50 mg, Geometric Mean): 5.23 h | Tmax (male, 50 mg, Geometric Mean, read-out: Tmax): 1.02 h | half-life (male, 50 mg, Geometric Mean, read-out: t1/2 (converted)): 3.65 h | AUC(0-inf) (male, 50 mg, Mean (n = 7)): 2490 ng·h/mL | AUC(0-t) (male, 50 mg, Mean (n = 7)): 2390 ng·h/mL | MRT inf (male, 50 mg, Mean (n = 7)): 5.25 h | half-life (male, 50 mg, Mean (n = 7), read-out: t1/2 (converted)): 3.68 h | AUC(0-inf) (male, 50 mg, Median): 2200 ng·h/mL | AUC(0-t) (male, 50 mg, Median): 2120 ng·h/mL | MRT inf (male, 50 mg, Median): 5.29 h | Tmax (male, 50 mg, Median, read-out: Tmax): 1 h | half-life (male, 50 mg, Median, read-out: t1/2 (converted)): 3.62 h | AUC(0-inf) (male, 100 mg, Geometric Mean): 4850 ng·h/mL | AUC(0-t) (male, 100 mg, Geometric Mean): 4780 ng·h/mL | MRT inf (male, 100 mg, Geometric Mean): 5.7 h | half-life (male, 100 mg, Geometric Mean, read-out: t1/2 (converted)): 4.15 h | AUC(0-inf) (male, 100 mg, Mean (n = 7)): 4880 ng·h/mL | AUC(0-t) (male, 100 mg, Mean (n = 7)): 4810 ng·h/mL | MRT inf (male, 100 mg, Mean (n = 7)): 5.75 h | half-life (male, 100 mg, Mean (n = 7), read-out: t1/2 (converted)): 4.15 h | AUC(0-inf) (male, 100 mg, Median): 4820 ng·h/mL | AUC(0-t) (male, 100 mg, Median): 4730 ng·h/mL | MRT inf (male, 100 mg, Median): 5.69 h | half-life (male, 100 mg, Median, read-out: t1/2 (converted)): 4.22 h | AUC(0-inf) (male, 150 mg, Geometric Mean): 8490 ng·h/mL | AUC(0-t) (male, 150 mg, Geometric Mean): 8360 ng·h/mL | MRT inf (male, 150 mg, Geometric Mean): 5.97 h | Tmax (male, 150 mg, Geometric Mean, read-out: Tmax): 1.63 h | half-life (male, 150 mg, Geometric Mean, read-out: t1/2 (converted)): 3.64 h | AUC(0-inf) (male, 150 mg, Mean (n = 7)): 8620 ng·h/mL | AUC(0-t) (male, 150 mg, Mean (n = 7)): 8510 ng·h/mL | MRT inf (male, 150 mg, Mean (n = 7)): 6.04 h | half-life (male, 150 mg, Mean (n = 7), read-out: t1/2 (converted)): 3.71 h | AUC(0-inf) (male, 150 mg, Median): 8010 ng·h/mL | AUC(0-t) (male, 150 mg, Median): 7940 ng·h/mL | MRT inf (male, 150 mg, Median): 5.87 h | half-life (male, 150 mg, Median, read-out: t1/2 (converted)): 3.68 h | half-life (male, 10 to 150 mg, read-out: elimination half-life): 3 to 4 h | Tmax (male, 10 to 150 mg, read-out: mean Tmax): 0.7 to 1.75 h | MRT (male, 10 to 150 mg, read-out: mean residence time): 5 to 6 h
